The target in this experiment is ACSS2 (Homo sapiens, UniProt Q9NR19). Nature of the experiment: biochemical.

Here are results for 40 compounds from patent publication US10851064B2, “ACSS2 inhibitors and methods of use thereof” (METABOMED LTD., priority 2017, dated 2020).

Values joined by “and” are separate entries in the source; they are usually repeats but may differ in a detail not shown here. Equal entries are not always repeated. Some results are limits rather than exact numbers.
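Also: Cell-free human ACSS2 enzyme reaction with acetate, CoA and ATP, 90 min at 37 C, coupled to pyrophosphatase, phosphate release detected by Biomol Green absorbance at 620 nm.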

Chain of ACSS2 (Q9NR19 whole entry): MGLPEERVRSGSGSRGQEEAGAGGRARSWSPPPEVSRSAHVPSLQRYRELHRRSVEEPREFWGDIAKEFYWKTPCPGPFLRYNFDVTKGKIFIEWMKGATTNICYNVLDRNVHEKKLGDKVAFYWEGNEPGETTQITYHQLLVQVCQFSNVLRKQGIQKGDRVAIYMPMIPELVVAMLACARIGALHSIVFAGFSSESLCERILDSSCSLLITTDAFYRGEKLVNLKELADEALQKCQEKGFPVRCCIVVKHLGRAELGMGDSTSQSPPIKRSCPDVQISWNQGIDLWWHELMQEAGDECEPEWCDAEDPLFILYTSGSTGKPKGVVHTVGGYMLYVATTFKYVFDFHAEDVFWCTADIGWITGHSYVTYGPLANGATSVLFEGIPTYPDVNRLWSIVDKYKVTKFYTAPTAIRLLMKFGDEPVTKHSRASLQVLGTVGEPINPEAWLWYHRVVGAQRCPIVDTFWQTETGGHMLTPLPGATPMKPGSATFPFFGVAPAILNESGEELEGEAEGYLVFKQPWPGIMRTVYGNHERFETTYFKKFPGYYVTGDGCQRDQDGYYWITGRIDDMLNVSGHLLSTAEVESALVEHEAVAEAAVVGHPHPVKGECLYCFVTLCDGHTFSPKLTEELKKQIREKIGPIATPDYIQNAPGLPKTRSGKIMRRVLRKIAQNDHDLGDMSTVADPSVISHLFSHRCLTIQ

A word on the IC50: it is the concentration at which inhibition is half-maximal. A higher IC50 goes with weaker potency. As for `CCc1cccc(NC(=O)C2C(=O)N(c3ccc(N)cc3)N=C2C)c1` (stereo not shown) [compound 154, 1-(4-aminophenyl)-N-(3-ethylphenyl)-3-methyl-5-oxo-4,5-dihydro-1H-pyrazole-4-carboxamide], the 50% inhibitory concentration (IC50) fell in the range of 100 to 1000 nM.

As to `CC1=NN(c2ccccc2)C(=O)C1C(=O)Nc1cccc(-c2nnc[nH]2)c1` (stereo not shown) [compound 174], the IC50 fell in the range of 100 to 1000 nM.

Regarding `COc1ccc(N2N=C(C)C(C(=O)Nc3cccc(C(C)(F)F)c3)C2=O)cc1-c1ccccn1` (stereo not shown) [compound 434], the IC50 was 0.01 to 6 nM.

For `CC1=NN(c2cccc(C#CCNC(=O)COCCOCCOCC(=O)Nc3cccc4c3C(=O)N(C3CCC(=O)NC3=O)C4=O)c2)C(=O)C1C(=O)Nc1cccc(C(C)(F)F)c1` (stereo not shown) [compound 380], the IC50 lay in the range of 0.01 to 6 nM.

`CC1=NN(c2ccc3ccn(-c4ccccc4)c3c2)C(=O)C1C(=O)Nc1cccc(C(C)(F)F)c1` (stereo not shown) [compound 361] had an IC50 of 0.01 to 6 nM.

As to `CC(=O)NS(=O)(=O)c1cc(N2N=C(C)C(C(=O)Nc3cccc(-c4ccco4)c3)C2=O)ccc1OC(F)(F)F` (stereo not shown) [compound 299], the half-inhibitory concentration (IC50) is 6 to 100 nM.

In turn, `CC1=NN(c2ccccc2)C(=O)C1C(=O)Nc1cccc(CC(C)C)c1` (stereo not shown) [compound 147, N-(3-isobutylphenyl)-3-methyl-5-oxo-1-phenyl-4,5-dihydro-1H-pyrazole-4-carboxamide] yielded an IC50 of 100 to 1000 nM.

Compound `CC1=NN(c2ccccc2)C(=O)C1C(=O)NC(=O)c1ccccc1` (stereo not shown) [compound 207, N-benzoyl-3-methyl-5-oxo-1-phenyl-4,5-dihydro-1H-pyrazole-4-carboxamide] gave an IC50 of 1000 to 100000 nM.

As to `CC1=NN(c2ccccc2)C(=O)C1C(=O)Nc1ccccn1` (stereo not shown) [compound 214, 3-methyl-5-oxo-1-phenyl-N-(pyridin-2-yl)-4,5-dihydro-1H-pyrazole-4-carboxamide], the IC50 was above 100000 nM.

`CC1=NN(c2cccc(C#CCNC(=O)CCCC(=O)Nc3ccc4c(c3)C(=O)N(C3CCC(=O)NC3=O)C4=O)c2)C(=O)C1C(=O)Nc1cccc(C(C)(F)F)c1` (stereo not shown) [compound 382] came in with a concentration for half-maximal inhibition (IC50) of 0.01 to 6 nM.

Compound `COc1ccc(N2N=C(C)C(C(=O)Nc3cccc(C(C)(F)F)c3)C2=O)cc1-c1cncnc1` (stereo not shown) [compound 442] had a half-maximal inhibitory concentration (IC50) of 0.01 to 6 nM.

For `CC1=NN(c2ccc(OC(F)F)cc2)C(=O)C1C(=O)Nc1ccc2cc[nH]c2c1` (stereo not shown) [compound 349], the half-maximal inhibitory concentration (IC50) was 100 to 1000 nM.

With `CC1=NN(c2ccc(OC(F)F)cc2)C(=O)C1C(=O)Nc1cccc(C(C)(F)F)c1` (stereo not shown) [compound 418], the half-maximal inhibitory concentration (IC50) was in the range of 100 to 1000 nM.

In turn, `CC1=NN(c2cc(Cc3ccccc3Cl)cc(-c3ccccc3)c2)C(=O)C1C(=O)Nc1cccc(C(C)(F)F)c1` (stereo not shown) [compound 333] registered an IC50 of 6 to 100 nM.

In turn, `CC1=NN(c2ccccc2)C(=O)C1C(=O)Nc1ccc(F)cc1` (stereo not shown) [compound 189, N-(4-fluorophenyl)-3-methyl-5-oxo-1-phenyl-4,5-dihydro-1H-pyrazole-4-carboxamide] displayed a concentration for half-maximal inhibition (IC50) of 1000 to 100000 nM.

`CC1=NN(c2ccccc2)C(=O)C1C(=O)Nc1cccc(-c2ccncc2)c1` (stereo not shown) [compound 104, 3-methyl-5-oxo-1-phenyl-N-(3-(pyridin-4-yl)phenyl)-4,5-dihydro-1H-pyrazole-4-carboxamide] yielded an IC50 of 1000 to 100000 nM.

Turning to `CC1=NN(c2ccc(OC(C)C)cc2)C(=O)C1C(=O)Nc1cccc(C(C)(F)F)c1` (stereo not shown) [compound 447], the IC50 is 0.01 to 6 nM.

In the case of `CC1=NN(c2ccc(OC(F)F)cc2)C(=O)C1C(=O)N(C)c1cc(C)cc(Cl)c1` (stereo not shown) [compound 393], the IC50 lay in the range of 100 to 1000 nM.

In the case of `CCC(F)(F)c1cccc(NC(=O)C2C(=O)N(c3ccc(OC(F)F)cn3)N=C2C)c1` (stereo not shown) [compound 383], the 50% inhibitory concentration (IC50) was 0.01 to 6 nM.

As to `CCc1cccc(NC(=O)C2C(=O)N(c3ccc(NC(C)=O)cc3)N=C2C)c1` (stereo not shown) [compound 144, 1-(4-acetamidophenyl)-N-(3-ethylphenyl)-3-methyl-5-oxo-4,5-dihydro-1H-pyrazole-4-carboxamide], the IC50 lay within 100 to 1000 nM.

Turning to `COc1ccc(N2N=C(C)C(C(=O)Nc3cccc(C(C)(F)F)c3)C2=O)cc1O` (stereo not shown) [compound 281], the IC50 was in the range of 0.01 to 6 nM.

In the case of `CC1=NN(c2cccc(S(=O)(=O)N(C)C)c2)C(=O)C1C(=O)Nc1cccc(-c2cnccn2)c1` (stereo not shown) [compound 272], the IC50 fell in the range of 6 to 100 nM.

With `CC1=NN(c2ccc(OC(F)F)c(-c3nnc(C)o3)c2)C(=O)C1C(=O)Nc1cccc(C(C)(F)F)c1` (stereo not shown) [compound 429], the half-maximal inhibitory concentration (IC50) fell in the range of 0.01 to 6 nM.

`CCc1cccc(NC(=O)C2C=NN(c3ccccc3)C2=O)c1` (stereo not shown) [compound 133, N-(3-ethylphenyl)-5-oxo-1-phenyl-4,5-dihydro-1H-pyrazole-4-carboxamide] returned an IC50 of 100 to 1000 nM.

The compound `Cc1nn(-c2ccc(OC(F)F)cc2)cc1C(=O)Nc1cccc(C(C)(F)F)c1` [compound 338] came in with a half-inhibitory concentration (IC50) of 6 to 100 nM.

As to `CC1=NN(c2cccc(C(=O)O)c2)C(=O)C1C(=O)Nc1cccc(-c2ncc[nH]2)c1` (stereo not shown) [compound 172], the 50% inhibitory concentration (IC50) was 6 to 100 nM.

`CC1=NN(c2ccccc2)C(=O)C1C(=O)NC1CCOCC1` (stereo not shown) [compound 112, 3-methyl-5-oxo-1-phenyl-N-(tetrahydro-2H-pyran-4-yl)-4,5-dihydro-1H-pyrazole-4-carboxamide]: the IC50 was in the range of 1000 to 100000 nM.

Consider `CC1=NN(c2cccc(CN)c2)C(=O)C1C(=O)Nc1cccc(C(C)(F)F)c1` (stereo not shown) [compound 335], for which the IC50 was in the range of 6 to 100 nM.

As to `CC1=NN(c2ccncc2)C(=O)C1C(=O)Nc1cccc(-c2ccco2)c1` (stereo not shown) [compound 240], the 50% inhibitory concentration (IC50) was 6 to 100 nM.

`CC1=NN(c2ccc(OC(F)F)c(-c3ncc(C)o3)c2)C(=O)C1C(=O)Nc1cccc(C(C)(F)F)c1` (stereo not shown) [compound 415] gave an IC50 of 0.01 to 6 nM.

Take `CC1=NN(c2ccc(OC(F)F)cc2)C(=O)C1C(=O)Nc1cc(C(C)(F)F)cc2c1COC2` (stereo not shown) [compound 397]: the half-maximal inhibitory concentration (IC50) is 100 to 1000 nM and 6 to 100 nM.

Take `CCC(F)(F)c1cccc(NC(=O)C2C(=O)N(c3ccc(OC)cc3)N=C2C)c1` (stereo not shown) [compound 435]: the IC50 was 0.01 to 6 nM.

With `CC(=O)c1cccc(NC(=O)C2C(=O)N(c3ccc(C(=O)O)cc3)N=C2C)c1` (stereo not shown) [compound 120, 4-(4-((3-acetylphenyl)carbamoyl)-3-methyl-5-oxo-4,5-dihydro-1H-pyrazol-1-yl)benzoic acid], the IC50 lay in the range of 100 to 1000 nM.

With `CCc1cccc(NC(=O)C2C(=O)N(c3ccncc3)N=C2C)c1` (stereo not shown) [compound 125, N-(3-ethylphenyl)-3-methyl-5-oxo-1-(pyridin-4-yl)-4,5-dihydro-1H-pyrazole-4-carboxamide], the half-inhibitory concentration (IC50) lay within 100 to 1000 nM.

The compound `CC1=NN(c2ccc(OC(F)F)cc2)C(=O)C1C(=O)Nc1ccc2[nH]ccc2c1` (stereo not shown) [compound 347] registered an IC50 of 100 to 1000 nM.

The compound `CCCn1ccc2ccc(N3N=C(C)C(C(=O)Nc4cccc(C(C)(F)F)c4)C3=O)cc21` (stereo not shown) [compound 363] showed a 50% inhibitory concentration (IC50) of 0.01 to 6 nM.

With `CC1=NN(c2ccc(OC(F)F)c(-c3cccnc3)c2)C(=O)C1C(=O)Nc1cccc(C(C)(F)F)c1` (stereo not shown) [compound 455], the IC50 lay within 0.01 to 6 nM.

As to `CC1=NN(c2ccc(S(=O)(=O)N(C)C)cc2)C(=O)C1C(=O)Nc1cccc(-c2ncco2)c1` (stereo not shown) [compound 254], the IC50 fell in the range of 100 to 1000 nM.

In turn, `CC1=NN(c2cc(Cc3ccccc3Cl)cc(-c3cccnc3)c2)C(=O)C1C(=O)Nc1cccc(C(C)(F)F)c1` (stereo not shown) [compound 406] returned an IC50 of 0.01 to 6 nM.

Consider `CC1=NN(c2cccc(C(=O)OC(C)C)c2)C(=O)C1C(=O)Nc1cccc(-c2ncco2)c1` (stereo not shown) [compound 238], for which the 50% inhibitory concentration (IC50) was 6 to 100 nM.
